Assays:
[1] = Study of 345 idiopathic pulmonary fibrosis patients on pirfenidone 2403 mg/day: liver function test (AST/ALT) abnormalities and response to dosing regimen; format: in vivo; parameters: key to Grade of AST or ALT abnormality after dose modification / Grade of ALT after dose modification / Grade of liver function test at resolution: 0: WNL; 1: >ULN-2.5 × ULN; >2.5-5 × ULN; 3: >5-20 × ULN; 4: >20 × ULN
Procedure: Patients begin pirfenidone treatment by receiving escalating doses of pirfenidone over a period of 15 days until the full maintenance dose is reached. Specifically, from days 1 to 7, patients are administered one capsule of 267 mg pirfenidone three times per day. During days 8 to 14, patients receive two capsules of 267 mg pirfenidone three times per day. From day 15 onward, patients are treated with three capsules of 267 mg pirfenidone three times per day. Pirfenidone is administered orally, and each dose should be taken with food. If the patient is unable to eat, then the pirfenidone dose should be taken with milk or juice (excluding grapefruit juice).
Once the full maintenance dose is reached, pirfenidone is administered orally to patients three times per day to provide a daily dose of 2403 mg pirfenidone. Each of the three doses of 801 mg pirfenidone includes three capsules of 267 mg pirfenidone each. The contents of the pirfenidone 267 mg capsules are pirfenidone (82.15%); croscarmellose sodium (8.15%); microcrystalline cellulose (7.39%); povidine, USP, EP (1.85%); and magnesium stearate (0.46%).
Patients are treated with pirfenidone for up to 72 weeks. Some patients are treated longer than 72 weeks. At weeks 2, 4, 6, 12, and every 12 weeks (±2 weeks) thereafter during the treatment period, with the exception of week 72 and the treatment completion visit, patients are examined and histories are collected as detailed in the steps below.
4. Clinical laboratory tests are performed, including hematology, serum chemistries, pregnancy tests for women of childbearing capacity, and urinalysis with microscopic examination.
Patients were treated with pirfenidone in accordance with Example 1. […] As described in Example 1, serum chemistry tests were performed at scheduled intervals during the treatment period to monitor various parameters, including biomarkers of liver function such as alanine transaminase (ALT), aspartate transaminase (AST), bilirubin, alkaline phosphate (ALP), and gamma-glutamyl transferase (GGT).
The patient continued to receive the full target dose of 2403 mg/day. While receiving the full target dose, the patient was monitored for AST, ALT, and bilirubin levels.
In one patient, study drug dose was reduced to 1602 mg/day for the remainder of study participation (from Day 51 to Day 602), and the Grade 1 AST or ALT abnormality returned to Grade 0. For the second patient, study drug dose was reduced to 1602 mg/day and then increased to 2403 mg/day for remainder of study participation, and ALT returned to Grade 0. The third patient had study drug dose reduced to 801 mg/day, ultimately completing study at 1602 mg/day, at which time ALT returned to Grade 0. The remaining patients (46 patients) received no dose modification.

[2] = Gamma-glutamyl transferase observed in patients receiving pirfenidone; format: in vivo; conditions: some patients receiving pirfenidone
Description: In some embodiments, the biomarker of liver function is alanine transaminase, aspartate transaminase, bilirubin, and/or alkaline phosphatase. […] In any of the embodiments described herein, biomarkers of liver function can exclude gamma-glutamyl transferase. In another embodiment, the abnormal level of alanine transaminase, aspartate transaminase, or alkaline phosphatase is greater than about 2.5-fold increased compared to the upper limit of normal (ULN). In a related embodiment, the abnormal level of alanine transaminase, aspartate transaminase, or alkaline phosphatase is greater than about 2.5- to about 5-fold increased compared to the upper limit of normal (ULN), i.e. a “liver function Grade 2 abnormality”. In some embodiments, the abnormal level of bilirubin is greater than about 1.5- to about 3-fold increased compared to the upper limit of normal (ULN), i.e., a “liver function Grade 2 abnormality”.

[3] = IPF patients, compassionate use; cited from earlier work
[4] = one year treatment, chronic pulmonary fibrosis; cited from earlier work

Question: Which “Grade of ALT after dose modification” value ([1]; Grade 1 patient, dose reduced to 801 mg/day, completing study at 1602 mg/day) does the source give for `Cc1ccc(=O)n(-c2ccccc2)c1` [pirfenidone, 5-methyl-1-phenyl-2-(1H)-pyridone] here?
Answer: 0

Question: What about the “Grade of AST or ALT abnormality after dose modification” value ([1]; Grade 1 patient, dose reduced to 1602 mg/day for remainder of study (Day 51 to Day 602)) of the same compound?
Answer: 0

Question: And the “Grade of ALT after dose modification” value ([1]; Grade 1 patient, dose reduced to 1602 mg/day, then increased to 2403 mg/day for remainder of study)?
Answer: 0

Question: What about the “Grade of elevation at end of study” value ([1]; Grade 2 patient continued on 2403 mg/day, history of steatosis, Grade 1 before treatment, dose reduced for unrelated reasons (rash, diarrhea)) of the same compound?
Answer: 1 (>ULN-2.5 × ULN)

Question: What about the “Grade of AST elevation at the last documented assessment” value ([1]; Grade 2 patient, no dose modification, Grade 1 AST and ALT at baseline) of the same compound?
Answer: 1 (>ULN-2.5 × ULN)

Question: What about the “Grade of liver function test at resolution” value ([1]; Grade 2 patient, continued full daily dose of 2403 mg/day) of the same compound?
Answer: 0

Question: And the “transaminase levels after re-escalation” value ([1]; Grade 2 patient, treatment temporarily discontinued for acute cerebral artery occlusion, escalated back to 2403 mg/day)?
Answer: returned to normal

Question: What about the “Grade of abnormality at last documented values” ([1]; Grade 3 patient with Grade 1 at screening and/or baseline, discontinued for lung transplant) of the same compound?
Answer: 1 (>ULN-2.5 × ULN)

Question: What about the “AST and ALT elevations at the last documented value” ([1]; Grade 3 patient with Grade 1 at screening and/or baseline, study drug interrupted, then discontinued) of the same compound?
Answer: normalized

Question: And the “patients developing a Grade 2 liver function test abnormality in AST and/or ALT levels” value ([1]; after pirfenidone 2403 mg/day)?
Answer: Fifteen

Question: What about the “patients developing Grade 3 liver function abnormality in AST and/or ALT levels” value ([1]; after pirfenidone administration) of the same compound?
Answer: Four

Question: And the “patients exhibiting a Grade 1 elevation in AST or ALT levels after pirfenidone administration” value ([1]; of 345 IPF patients, 2403 mg/day, patients without a baseline liver function abnormality)?
Answer: 49 patients

Question: And the “patients with Grade 1 liver function test elevation having a treatment emergent adverse event of increased AST or ALT” value ([1]; of the 49 Grade 1 patients)?
Answer: three

Question: What about the “patients with Grade 2 abnormality with reported treatment emergent adverse events of increased AST or ALT or hepatitis” value ([1]; of the fifteen Grade 2 patients) of the same compound?
Answer: 12 patients

Question: What about the “patients who discontinued study drug for elevated liver function tests” value ([1]; of the four Grade 3 patients) of the same compound?
Answer: Two

Question: And the “patients who discontinued treatment due to abnormal liver function tests in AST and/or ALT levels” value ([1]; of the twelve Grade 2 patients with adverse event, Grade 2 AST coincided with Grade 3 ALT)?
Answer: One

Question: What about the “outcome of rechallenge with the full dose” value ([1]; one of the seven Grade 2 patients with permanent dose reduction, rechallenged at 2403 mg/day) of the same compound?
Answer: recurrence of Grade 2 elevation in ALT levels

Question: What about the “transaminases at study completion” value ([1]; seven Grade 2 patients with permanent dose reduction (3 at 801 mg/day, 4 at 1602 mg/day)) of the same compound?
Answer: resolution of transaminases, except for one patient that had a Grade 1 elevation at study completion

Question: And the “liver enzymes at study completion” value ([1]; two Grade 2 patients, temporary dose reduction or discontinuation, rechallenged and escalated back to 2403 mg/day)?
Answer: normal liver enzymes

Question: What about the “resolution of abnormalities after discontinuation” value ([1]; two Grade 3 patients who discontinued for elevated liver function tests, Grade 2 and Grade 3 last documented) of the same compound?
Answer: had not resolved

Question: And the gamma-glutamyl transferase [2]?
Answer: Elevated gamma-glutamyl transferase has been observed in some patients receiving pirfenidone, without clinical liver impairment

Question: And the “adverse events in hematology or blood chemistry” value [3]?
Answer: No adverse events in hematology or blood chemistry

Question: What about the “liver dysfunctions, hematologic abnormalities, allergic or shock reactions during treatment” value [4] of the same compound?
Answer: no liver dysfunctions, hematologic abnormalities, or allergic or shock reactions

From US8592462B2, “Pirfenidone treatment for patients with atypical liver function” (Intermune, Inc., priority 2008, dated 2013)
